According to patent publication US6696456B1, “Beta disubstituted metalloprotease inhibitors” (The Procter & Gamble Company, priority 1999, dated 2004):

Legend:
[1] = test system: human subject suffering from rheumatoid arthritis; assay: Example A: oral tablet treatment of a subject with rheumatoid arthritis; format: in vivo; conditions: tablet with 15 mg compound, three tablets per day orally for 2 years, 60 kg human
Protocol: A tablet composition for oral administration, according to the present invention, is made comprising:
A human subject weighing 60 kg (132 lbs), suffering from rheumatoid arthritis, is treated by a method of this invention. Specifically, for 2 years, a regimen of three tablets per day is administered orally to said subject.

[2] = test system: human subject suffering from osteoarthritis; assay: Example B: oral capsule treatment of a subject with osteoarthritis; format: in vivo; conditions: capsule with 70 mg compound daily for 5 years, 90 kg human
Protocol: A capsule for oral administration, according to the present invention, is made comprising:
A human subject weighing 90 kg (198 lbs.), suffering from osteoarthritis, is treated by a method of this invention. Specifically, for 5 years, the above capsule, which contains 70 mg of the compound of Example 4, is administered daily to said subject.

| Structure (SMILES) | inflammation, mobility and pain at the end of the treatment period [1] | erosion/fibrillation of the articular cartilage via x-ray, arthroscopy and/or MRI [2] |
| --- | --- | --- |
| COc1ccc(-c2ccc(S(=O)(=O)N[C@@H](C(=O)O)[C@H](OCc3ccc(C)cc3)c3nccs3)cc2)cc1 [Example 1, (2R,3S)-2-(4′ -Methoxy-biphenyl-4-sulfonylamino)-3-(4-methyl-benzyloxy)-3-thiazol-2-yl-propionic Acid] | reduced inflammation and improved mobility without concomitant pain | – |
| CCS[C@H](c1ccccc1)[C@@H](NS(=O)(=O)c1ccc(-c2ccc(F)cc2)cc1)C(=O)O [Example 4, (2S,3R)-3-Ethylsulfanyl-2-(4′-fluoro-biphenyl-4-sulfonylamino)-3-phenyl-propionic Acid] | – | no further advancement of erosion/fibrillation of the articular cartilage |
